Test system: CD206+macrophages (MOs)
Assay: CD206 targeting assay in monocyte-derived CD206+ macrophages (uptake, killing, apoptosis)
Assay type: cell-based
Conditions: FIG. 17
Protocol: CD206 targeting assays were conducted using both in vitro monocyte-derived CD206+macrophages (MOs) and ex vivo fresh Kaposi Sarcoma (KS) tumor tissue (provided by the AIDS and Cancer Specimen Resource [ACSR]). Tilmanocept-Cy 3 with/without a chemo-therapeutic agent (CTA) attached (tilmanocept-Cy3-CTA or tilmanocept-Cy3) interactions with cellular and tumor targets were tracked by flow cytometry and immuno-histochemistry to evaluate Cy3-tilmanocept uptake and targeting capability for delivery of drug into KS tumor cells and TAMs.

SMILES: COc1cccc2c1C(=O)c1c(O)c3c(c(O)c1C2=O)C[C@@](O)(C(=O)CO)C[C@@H]3O[C@H]1C[C@H](N)[C@H](O)[C@H](C)O1 [Docorubicin, doxorubicin]
- toxicity to CD206 expressing macrophages (Annexin levels): no toxicity
- effect on cells (apoptosis, cell loss) (compared with tilmanocept-Cy3-CTA): less effect

— patent publication US20220062448A1 (priority 2015, published 2022)
